# Reference: ChEMBL document CHEMBL1149286 (J Med Chem, 2004)
# Key:
# Rattus norvegicus [1] = species on record: Rattus norvegicus; experiment: Selectivity for rat 5HT7 receptor over rat 5HT1A receptor
# [2] = molecular target: 5-hydroxytryptamine receptor 7 (Homo sapiens, UniProt P34969); experiment: Agonist activity at 5-carboxamidotryptamine desensitized 5HT7 receptor assessed as relaxation of substance P-induced contraction of Dunkin-Hartley guinea pig ileum; type: functional, tissue-based; design: concentration or dose not given beside the values; details: Cavia porcellus, target entry is the homologue from another species
# 5-hydroxytryptamine receptor 7 (Homo sapiens, UniProt P34969), sequence (P34969 whole entry): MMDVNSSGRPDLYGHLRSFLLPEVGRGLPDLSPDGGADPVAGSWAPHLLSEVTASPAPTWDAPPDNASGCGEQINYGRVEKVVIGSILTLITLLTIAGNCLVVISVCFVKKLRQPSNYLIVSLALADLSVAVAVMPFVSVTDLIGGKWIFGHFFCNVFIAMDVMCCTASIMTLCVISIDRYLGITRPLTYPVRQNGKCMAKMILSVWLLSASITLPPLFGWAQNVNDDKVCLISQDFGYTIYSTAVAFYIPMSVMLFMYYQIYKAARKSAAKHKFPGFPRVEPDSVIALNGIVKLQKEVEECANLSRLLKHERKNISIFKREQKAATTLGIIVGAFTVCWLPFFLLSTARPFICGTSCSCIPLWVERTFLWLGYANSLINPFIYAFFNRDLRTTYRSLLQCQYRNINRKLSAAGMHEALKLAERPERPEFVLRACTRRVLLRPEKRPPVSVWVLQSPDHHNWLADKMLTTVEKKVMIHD
# Rattus norvegicus [3] = species on record: Rattus norvegicus; experiment: Selectivity for rat 5HT7 receptor over rat 5HT2A receptor
# [4] = molecular target: 5-hydroxytryptamine receptor 2A (Rattus norvegicus) (UniProt P14842); experiment: (§1) Displacement of [3H]ketanserin from 5HT2A receptor in Wistar Han rat cortex membranes; type: cell membranes; details: Membrane
# 5-hydroxytryptamine receptor 2A (Rattus norvegicus), sequence (P14842 whole entry): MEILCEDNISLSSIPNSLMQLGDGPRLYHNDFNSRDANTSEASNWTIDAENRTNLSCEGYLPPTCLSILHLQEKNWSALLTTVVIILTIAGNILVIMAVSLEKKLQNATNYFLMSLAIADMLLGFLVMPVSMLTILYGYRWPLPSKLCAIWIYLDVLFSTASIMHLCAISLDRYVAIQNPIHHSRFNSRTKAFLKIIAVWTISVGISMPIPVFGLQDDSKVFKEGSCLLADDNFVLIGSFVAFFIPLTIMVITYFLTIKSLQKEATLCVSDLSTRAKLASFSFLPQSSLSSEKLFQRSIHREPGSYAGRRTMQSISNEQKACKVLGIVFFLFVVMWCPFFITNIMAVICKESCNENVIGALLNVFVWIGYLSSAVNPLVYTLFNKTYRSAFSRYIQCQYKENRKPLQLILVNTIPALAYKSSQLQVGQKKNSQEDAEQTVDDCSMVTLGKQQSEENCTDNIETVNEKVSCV
# [5] = molecular target: 5-hydroxytryptamine receptor 2A (Rattus norvegicus, UniProt P14842); experiment: as §1; type: cell membranes, Membrane
# 5-hydroxytryptamine receptor 2A, sequence (P14842 whole entry): as above
# [6] = molecular target: T1, 5-hydroxytryptamine receptor 1A (Rattus norvegicus, UniProt P19327); experiment: Displacement of [3H]8-OH-DPAT from 5HT1A receptor in Wistar Han rat hippocampal membranes; type: cell membranes, Membrane
# T1 sequence (P19327 whole entry): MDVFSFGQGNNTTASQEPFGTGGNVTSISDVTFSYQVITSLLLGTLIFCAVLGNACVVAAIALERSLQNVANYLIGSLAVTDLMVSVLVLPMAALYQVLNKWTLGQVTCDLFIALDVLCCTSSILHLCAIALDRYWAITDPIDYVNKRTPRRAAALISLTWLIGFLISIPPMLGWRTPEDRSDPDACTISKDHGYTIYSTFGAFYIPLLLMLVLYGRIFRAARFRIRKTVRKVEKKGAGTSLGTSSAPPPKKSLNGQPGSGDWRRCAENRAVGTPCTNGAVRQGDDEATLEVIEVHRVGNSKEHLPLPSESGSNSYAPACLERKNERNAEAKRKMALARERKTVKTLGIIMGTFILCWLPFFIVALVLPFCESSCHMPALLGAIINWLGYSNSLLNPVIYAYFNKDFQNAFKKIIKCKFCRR
# [7] = molecular target: 5-hydroxytryptamine receptor 7 (Rattus norvegicus, UniProt P32305); experiment: Displacement of [3H]LSD from rat recombinant 5HT7 receptor expressed in HEK293 cells; type: cell-based
# 5-hydroxytryptamine receptor 7 (Rattus norvegicus, UniProt P32305), sequence (P32305 whole entry): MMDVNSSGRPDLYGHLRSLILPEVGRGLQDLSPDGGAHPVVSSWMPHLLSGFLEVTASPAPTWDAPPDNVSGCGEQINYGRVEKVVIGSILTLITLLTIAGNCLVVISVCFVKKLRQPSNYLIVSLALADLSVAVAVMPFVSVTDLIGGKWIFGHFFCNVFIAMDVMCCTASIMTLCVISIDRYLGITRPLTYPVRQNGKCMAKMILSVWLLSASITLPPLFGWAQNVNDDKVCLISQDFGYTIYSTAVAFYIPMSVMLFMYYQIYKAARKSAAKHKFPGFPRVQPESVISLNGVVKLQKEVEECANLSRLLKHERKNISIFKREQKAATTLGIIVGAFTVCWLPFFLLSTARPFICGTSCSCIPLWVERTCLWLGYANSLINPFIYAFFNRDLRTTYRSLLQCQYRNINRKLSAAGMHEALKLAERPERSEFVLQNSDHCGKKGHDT
Ki [7] [nM],SMILES,Activity [2] [%],other results
125,O=C(CCCCCN1CCN(c2noc3ccccc23)CC1)NC1CCCc2ccccc21 (centres undefined),,Ki [6]: 3900 nM
> 1000,COc1ccccc1N1CCN(CC(=O)NC2CCCc3c(OC)cccc32)CC1 (centres undefined),,
704,COc1ccc2oc(N3CCN(CCCCCC(=O)NC4CCCc5ccccc54)CC3)nc2c1 (centres undefined),,

# The next lines start with the molecule.
SMILES,Ki [7] [nM],Activity [2] [%],other results
CSc1ccccc1N1CCN(CCCCCC(=O)NC2CCCc3ccccc32)CC1 (centres undefined),,100,Selectivity ratio (Rattus norvegicus [1]): 200; Selectivity ratio (Rattus norvegicus [3]): > 1000
COc1ccccc1N1CCN(CCCCCC(=O)NC2CCCc3ccccc32)CC1 (centres undefined),,91,
CS(=O)(=O)c1ccccc1N1CCN(CCCCCC(=O)NC2CCCc3ccccc32)CC1 (centres undefined),,,Activity [4]: 38%; Ki [5]: > 4000 nM
Cc1ccccc1N1CCN(CCCCCC(=O)NC2CCCc3ccccc32)CC1 (centres undefined),,98,
O=C(CCCCCN1CCN(c2ccccc2O)CC1)NC1CCCc2ccccc21 (centres undefined),,0,
O=C(CCCCCN1CCN(c2nc3ccccc3o2)CC1)NC1CCCc2ccccc21 (centres undefined),820,,
NCCc1c[nH]c2ccc(C(N)=O)cc12,,100,
O=C(CCCCCN1CCN(c2nc3ccccc3[nH]2)CC1)NC1CCCc2ccccc21 (centres undefined),356,,Ki [6]: 2600 nM
CC(=O)c1ccccc1N1CCN(CCCCCC(=O)NC2CCCc3ccccc32)CC1 (centres undefined),,79,
NC(=O)c1ccccc1N1CCN(CCCCCC(=O)NC2CCCc3ccccc32)CC1 (centres undefined),,,Activity [4]: 9%; Ki [5]: > 4000 nM
